Holding throughout (assay type): cell-based
The subject of series [1] is HeLa cells. Description: Flow cytometry (FACS) quantification of cellular uptake of FAM labeled peptides. The following applies: FAM labeled peptide, 10 uM, 37° C., 1 hour, average of a number of experiments. As to the method:
To determine the efficiency of peptide loading, HeLa cells (ATCC number CCL-2TM (Manassas, Va.) grown in DMEM medium with stabilized glutamine supplemented with 10% fetal calf serum (Biological Industries, Beit Haemek, Israel), were seeded at a density of 20,000 per well in 96 U shape-well plates (Nunc A/S, Roskilde, Denmark) in serum containing DMEM (D-Mem W/O Na Pyr, product number 41965039).
After 24 hours, the cells were washed twice with 300 μL serum free OptiMEM (Reduced Serum Media, buffered with HEPES and sodium bicarbonate and supplemented with hypoxanthine, thymidine, sodium pyruvate, L-glutamine, trace elements and growth factors) medium and incubated in 50 μL serum free OptiMEM, containing peptides in the appropriate concentrations for 1 hour at 37° C. Each condition was tested in triplicates. After incubation, cells were washed with serum free medium, detached by trypsinization for 5 minutes, suspended in ice-cold PBS (phosphate buffered saline) containing 0.1% (w/v) BSA (bovine serum albumin), and measured immediately by flow cytometry (BD FACS Calibur System, Becton Dickinson, Heidelberg, Germany). The fluorescence of approximately 10,000 vital cells was acquired and gated based on sideward and forward scatter. Peptides used as positive controls were Tat(47-57) (SEQ ID NO:19; Jain M, et al., Cancer Res. 2005 Sep. 1; 65(17):7840-6), 9R (SEQ ID NO:21; Mueller J, et al., Bioconjug Chem. 2008 December; 19(12):2363-74) and penetratin (SEQ ID NO:20; Mueller J, et al., Bioconjug Chem. 2008 December; 19(12):2363-74). Negative control peptides N2 (SEQ ID NO:22) and N5 (SEQ ID NO:23) were designed according to Handbook [Cell-Penetrating Peptides, Second Edition, Edited by Ülo Langel, CRC Press 2007, Print ISBN: 978-0-8493-5090-0] and [US Patent Application 20080234183].
In general terms: A flow cytometer gives signals particle by particle.

The subject of series [2] is HeLa cells. As to the kind of experiment: Confocal microscopy of peptide membrane penetration and cellular distribution. The following applies: 5 uM, 37° C. The method, then: To determine qualitative validation of peptide membrane penetration, HeLa cells from 5 ml of confluent T75 flask were seed in 12 well plate at 10×10^4 cells/mL in 0.5 ml DMEM supplied with 10% Fetal Calf Serum. […] DiD (DiD-[1,1′-Dioctadecyl-3,3,3′,3′-tetramethylindodicarbocyanine iodide] Lipophilic membrane tracer) (5 ug/ml) was added to each well and incubated for 5 min at 4° C., washed twice with cold PBS and fixed with 3.7% PFA 20′ RT. Cells were rinsed with PBS and mounted on slides for confocal microscopy analysis.

Series [3] is described as follows: In vitro cytotoxicity by LDH (lactate dehydrogenase) analysis. The following applies: human. The method, then: In order to assess the in vitro cytotoxicity of the peptides, an LDH (lactate dehydrogenase) analysis was carried out, using LDH kit (Promega G1782), according to manufacturer instructions.
Briefly, HeLa cells from 5 ml of confluent T75 flask were seed in 96 well plate at 10×10^4 cells/mL in 0.1 ml DMEM supplied with 10% Fetal Calf Serum. After 24 hrs incubation with growth medium, wells were replaced with Serum Free growth medium for 24 hrs, and then cells were washed with OptiMEM and replaced with 0.1 ml peptide solution at 10 uM for 1 h at 37° C. 50 ul of supernatant were transferred to the new plate and detected according to Cyto Tox 96, Non Radioactive cytotoxicity assay, (LDH kit Promega G1782). Table 5 presents the results of in vitro cytotoxicity measurements by LDH for S22, S24, S36 and S40 peptides and two positive control peptides; Tat(47-57) and R9. LDH experiment was done with fluorescent labeled (5-FAM) peptides in concentration of […] and the % of cytotoxicity was measured by LDH levels.

A further series relates to A549 cells. Description: FACS binding analysis of CPP conjugated liposomes. The following applies: FAM-CPP conjugated to hyaluronan coated liposomes, 30 minutes on ice. As to the method:
Liposome preparation was carried out as described in Peer D., at al., 2008, Science 319, 627-630, Briefly, liposomes (60% soy-pc, 20% DPPE 20% cholesterol mol/mol) were prepared at a concentration of 40 mg/ml (Soy PC-273 mg, DPPE-81.2 mg Cholesterol-145.4 mg in 10 ml of ethanol). After a complete dissolvent, the solution was evaporated in a rotary evaporator (BUCHI R-210). Following the evaporation the dry lipid film was hydrated in 10 ml of HEPES (PH 7.4) and the solution was shaken (2 hr 65° C.). The MLV were reduced to ULV with an average size of ˜150 nm (Zetasizer Nano ZS system) by passing them through an extruder (Lipex) using filtration membranes in a serially manner ([…]). Average zeta potential of the ULV was −3 mV (Zetasizer Nano ZS system).
Hyaluronan (HA) (700 KDa Lifecore) was dissolved in 0.2M MES buffer (PH 5.5) to a final concentration of 5 mg/ml. HA was activate with EDC and solfo-NHS at a molar ratio of 1:1:6. After 30 min of activation the liposomes were added and the pH was adjusted to 7.4. The solution was incubated at room temp (2 hr). The free HA was removed by 3 repeated ultracentrifugations. The resulting HA-ULV's were at an average of 175 nm in size.
CPPs S22 (SEQ ID NO: 1), S24 (SEQ ID NO: 2) and S8 (SEQ ID NO: 6) and Control CPPs; 9R with additional C-terminal Lysine, 9R-K (SEQ ID NO: 40) and N2 (SEQ ID NO: 22), were dissolved to a concentration of 1 mg/ml. HA-ULV's (250 μl of 40 mg/ml) were activated with 1 ml of 0.4M EDC and 1 ml of 0.4 mM solfo-NHS. After 30 min the activated liposomes were divided into 5 test tubes (250 μl per each tube) and a different CPP (50 μl) was added. After incubation at RT for 2 hr, the CPP-HA-ULVS were dialyzed over night with PBS buffer (0.5 L/3 buffer changeovers) to remove unbound CPP, using dialysis bags with a cutoff 3500 Da.
For binding analysis, 3.5×10^5 cells were trypsinized, spin down, re-suspended with FACS buffer (1% fetal bovine serum in 1×PBS), incubated for 30 minutes on ice with different CPPs (Conjugated to FAM fluorophore) and washed with 1 ml FACS buffer.

A further series deals with A549 cell line. As to the kind of experiment: Internalization assay of CPP conjugated liposomes by confocal microscopy. The following applies: CPP conjugated to liposomes, 50 μl, 1 hour, 37° C. The method, then: (§1) Internalization assay was performed in 24 well plates. A549 or NRK cells were seeded on cover slips in RPMI or DMEM medium respectively, supplemented with antibiotics, L-Glutamine and 10% fetal calf serum (Biological industries, Beit Haemek).
(§2) For membrane staining, cells were stained with CellTracker™ DilC18 (5)-DS solution (Invitrogen, Carlsbad, Calif., USA), diluted 1:5000 with PBS. For internalization experiments involve NPs Concanavalin A, Alexa fluor 647 conjugate (10 μg/ml) (C21421, Invitrogen,) was used to label cell membrane. For nuclei staining, cells were stained with Hoechst (1:10,000 in PBS) (33258, Sigma). Cells were exposed to CPPs only (10 μM) or CPP-liposome complex (50 μl from stock, according to preparation method) or liposome only (50 μl from the prepared liposomal stock solution) in medium without serum for a period of 1 hour at 37° C. in a humidified atmosphere with 5% CO2. Subsequently, the cells were washed twice using cold PBS, fixated with 4% Paraformaldehyde (PFA) and washed again with cold PBS. Membrane and nuclei staining were preformed after fixation. The cells were mounted by fluorescent mounting medium (Golden Bridge international, Mukilteo, Wash., USA) and fluorescent was measured using Andor Spinning disc confocal microscope and the Meta 510 Zeiss LSM confocal microscope. Laser beams at 405, 488, 561 and 650 nm were used for UV, FAM, Rhodamine, Concavaline A and CellTracker™, fluorophores excitation respectively. Serial optical sections of the cells were recorded for each treatment and the images were processed using Zeiss LSM Image browser software.

The next series has as its system NRK cell line. Described as above. The following applies: CPP conjugated to liposomes, 50 μl, 1 hour, 37° C. The method, then:
as §1, §2

Entries after “also recorded” stand apart in the source; their conditions may differ. Peptide text beside a SMILES is read from it. * marks the point of attachment. 5FAM = O=C1OC2(c3ccc(O)cc3Oc3cc(O)ccc32)c2ccc(C(=O)*)cc21; FAM = carboxyfluorescein

For `CC[C@H](C)[C@H](NC(=O)[C@H](CCCNC(=N)N)NC(=O)[C@H](CCCNC(=N)N)NC(=O)[C@H](CS)NC(=O)[C@@H](NC(=O)[C@H](CCCCN)NC(=O)[C@H](CCCCN)NC(=O)c1ccc2c(c1)C(=O)OC21c2ccc(O)cc2Oc2cc(O)ccc21)[C@@H](C)O)C(=O)N[C@@H](CC(N)=O)C(=O)N[C@@H](Cc1ccc(O)cc1)C(=O)N[C@@H](CS)C(=O)N[C@@H](C)C(=O)N[C@@H](CC(C)C)C(=O)N[C@@H](CC(N)=O)C(=O)N[C@@H](CCCCN)C(N)=O` [S22, KKTCRRINYCALNK] (5FAM-KKTCRRINYCALNK-NH2; N-terminus and C-terminus assumed), in the series on HeLa cells [1], the “Geometric mean of FL1 intensity” value stood at 206.4275. Further, the “accumulation of FAM labeled peptide inside the cell (confocal images)” value with HeLa cells [2] is “strong cell membrane penetration capability; also recorded: efficient cellular uptake and intracellular accumulation”. Also, the cytotoxicity at 1 h, 10 µM in series [3] was determined as 7%. Further, in the series with A549 cells, the “binding to A549 cells (FACS)” value is reported as “high binding levels”. For the same compound, the “internalization into A549 cell line (confocal)” value in the series with A549 cell line is given as “significant internalization effect”. Further, the “internalization into NRK cell line (confocal)” value with NRK cell line is reported as “weak internalization; also recorded: better penetration into NRK in a comparison with peptide only”.

Consider “KKLALYLLLAL ({FAM}-KKLALYLLLAL-NH2) [S67]”, for which the “Geometric mean of FL1 intensity” value with HeLa cells [1] was determined as 27.9.

Regarding KPSARMLLLKGFGK [S8], in the series on HeLa cells [1], the “Geometric mean of FL1 intensity” value is 52.29. For the same compound, the “binding to A549 cells (FACS)” value in the series with A549 cells is listed as “lower binding effect”. Further, the “internalization into NRK cell line (confocal)” value in the series on NRK cell line is given as “weak internalization”.

As to “RRRRRRRRRK [9R-K, positive control, 9R with additional C-terminal Lysine, reference compound]”, the “binding to A549 cells (FACS)” value in the series on A549 cells is on record as “high binding levels”.

With “VATIKSVSFYTRK [N2, negative control peptide, reference compound]”, the “binding to A549 cells (FACS)” value with A549 cells is listed as “lower binding effect”. Further, the “internalization into A549 cell line (confocal)” value with A549 cell line is on record as “did not show internalization effect”.

The record behind these values is patent publication US20140056811A1, “NEW CELL-PENETRATING PEPTIDES AND USES THEREOF” (COMPUGEN LTD., priority 2010, published 2014).
